Experimental data: patent publication US8324390B2, “Tetrazole-substituted anthranilamides as pesticides” (Bayer CropScience AG, priority 2008, dated 2012)
Like-named read-outs stand apart in the source and are kept apart here.

Key:
[1] = log P determination by HPLC (EEC Directive 79/831 Annex V.A8); format: physicochemical
Experimental: The measurements were carried out using an Agilent 1100 LC system with a 50*4.6 Zorbax Eclipse C18 1.8 μm column (oven temperature 55° C., flow rate 2.0 ml/min).
The following mobile phases were used:
Mobile phase A: acetonitrile+1000 μl of formic acid/l
Mobile phase B: Millipore water+900 μl of formic acid/l

[2] = tested on: caterpillars of the armyworm (Spodoptera frugiperda); experiment: Spodoptera frugiperda test (SPODFR spray treatment); format: in vivo; settings: Spodoptera frugiperda, foliar, read-out: effect in % (caterpillars killed)
Description: (§1) Solvent: 78.0 parts by weight of acetone

[3] = tested on: green peach aphid (Myzus persicae); experiment: Myzus test (MYZUPE spray treatment); format: in vivo; settings: Myzus persicae, foliar, read-out: effect in % (aphids killed)
Description: Solvent: 78 parts by weight of acetone
as §1

[4] = tested on: larvae of the mustard beetle (Phaedon cochleariae); experiment: Phaedon test (PHAECO spray treatment); settings: Phaedon cochleariae, in Brassica rapa, foliar, read-out: effect in % (beetle larvae killed)
[5] = reversed-phase HPLC, Zorbax Eclipse C18 column, determined by HPLC according to EEC Directive 79/831 Annex V.A8, read-out: log P
[6] = application rate 100 g/ha, maize leaf discs
[7] = application rate 100 g/ha, Chinese cabbage leaf discs
[8] = reversed-phase HPLC, Zorbax Eclipse C18 column, by HPLC according to EEC Directive 79/831 Annex V.A8, read-out: log P

SMILES | chromatographic logP ([1]; log P) | pest or weed control at 100 g/ha ([2]; in Zea mays) | pest or weed control at 100 g/ha ([3]; in Brassica rapa) | pest or weed control at 100 g/ha [4] | chromatographic logP [1, 5] | pest or weed control at 100 g/ha [2, 6] | pest or weed control at 100 g/ha [3, 7] | chromatographic logP [1, 8] | pest or weed control at 20 g/ha ([3]; in Brassica rapa) | chromatographic logP ([1]; by HPLC according to EEC Directive 79/831 Annex V.A8, read-out: log P)
COCCNC(=O)c1cc(C#N)cc(C)c1NC(=O)c1cc(Cn2nnc(C(F)(F)F)n2)nn1-c1ncccc1Cl [Example 92] | 2.73 | ≥ 80% | ≥ 80% | ≥ 80% | – | – | – | – | – | –
Cc1cc(Cl)cc(C(=O)NC2CC2)c1NC(=O)c1cc(Cn2nnnc2C(F)(F)F)nn1-c1ncccc1Cl [Example 163] | 2.89 | ≥ 80% | ≥ 80% | ≥ 80% | – | – | – | – | – | –
Cc1cc(C#N)cc(C(=O)NC(C)C2CC2)c1NC(=O)c1cc(Cn2nnnc2C(F)(F)C(F)(F)F)nn1-c1ncccc1Cl (stereo not shown) [Example 203] | 3.48 | ≥ 80% | ≥ 80% | ≥ 80% | – | – | – | – | – | –
COC(C)(C)CNC(=O)c1cc(C#N)cc(C)c1NC(=O)c1cc(Cn2nnc(C(F)(F)F)n2)nn1-c1ncccc1Cl [Example 95] | 3.12 | ≥ 80% | ≥ 80% | ≥ 80% | – | – | – | – | – | –
Cc1cc(C#N)cc(C(N)=O)c1NC(=O)c1cc(Cn2nnnc2C(F)(F)F)nn1-c1ncccc1Br [Example 479] | – | – | – | ≥ 80% | 2.28 | ≥ 80% | ≥ 80% | – | – | –
CNC(=O)c1cc(C#N)cc(C)c1NC(=O)c1cc(Cn2nnc(C(F)(F)C(F)(F)F)n2)nn1-c1ccccc1Cl [Example 430] | – | – | – | ≥ 80% | 3.43 | ≥ 80% | ≥ 80% | – | – | –
CCNC(=O)c1cc(I)cc(C)c1NC(=O)c1cc(Cn2nnnc2C(F)(F)F)nn1-c1ncccc1Br [Example 503] | – | – | – | ≥ 80% | 3.16 | ≥ 80% | ≥ 80% | – | – | –
CSC[C@H](C)NC(=O)c1cc(Cl)cc(C)c1NC(=O)c1cc(Cn2nnc(C(F)(C(F)(F)F)C(F)(F)F)n2)nn1-c1ncccc1Cl [Example 361] | – | – | – | ≥ 80% | – | ≥ 80% | ≥ 80% | 4.39 | – | –
Cc1cc(C#N)cc(C(=O)NC(C)C)c1NC(=O)c1cc(Cn2nnnc2C(F)(F)F)nn1-c1ncccc1Cl [Example 165] | 2.72 | ≥ 80% | ≥ 80% | ≥ 80% | – | – | – | – | – | –
CNC(=O)c1cc(F)cc(C)c1NC(=O)c1cc(Cn2nnc(C(F)(F)F)n2)nn1-c1ncccc1Cl [Example 29] | 2.66 | ≥ 80% | ≥ 80% | ≥ 80% | – | – | – | – | – | –
CNC(=O)c1cc(Cl)cc(C)c1NC(=O)c1cc(Cn2nnc(C3CC3)n2)nn1-c1ncccc1Cl [Example 104] | 2.52 | ≥ 80% | ≥ 80% | ≥ 80% | – | – | – | – | – | –
Cc1cc(Br)cc(C(N)=O)c1NC(=O)c1cc(Cn2nnnc2C(F)(F)F)nn1-c1ncccc1Br [Example 498] | – | – | – | ≥ 80% | 2.51 | ≥ 80% | ≥ 80% | – | – | –
Cc1cc(Br)cc(C(=O)NC(C)(C)C)c1NC(=O)c1cc(Cn2nnc(C(F)(F)C(F)(F)F)n2)nn1-c1ncccc1Cl [Example 219] | 4.36 | ≥ 80% | ≥ 80% | ≥ 80% | – | – | – | – | – | –
Cc1cc(Cl)cc(C(=O)NC(C)(C)C)c1NC(=O)c1cc(Cn2nnnc2C(F)F)nn1-c1ncccc1Cl [Example 475] | 3.09 | ≥ 80% | ≥ 80% | ≥ 80% | – | – | – | – | – | –
C=CCNC(=O)c1cc(C#N)cc(C)c1NC(=O)c1cc(Cn2nnc(C(F)(F)F)n2)nn1-c1ncccc1Cl [Example 320] | 2.97 | ≥ 80% | ≥ 80% | ≥ 80% | – | – | – | – | – | –
C=C(C)CNC(=O)c1cc(Cl)cc(C)c1NC(=O)c1cc(Cn2nnc(C(F)(F)F)n2)nn1-c1ncccc1Cl [Example 337] | 3.62 | ≥ 80% | ≥ 80% | ≥ 80% | – | – | – | – | – | –
CNC(=O)c1cc(C#N)cc(C)c1NC(=O)c1cc(Cn2nnc(C(F)(F)F)n2)nn1-c1c(F)cccc1Cl [Example 529] | – | – | – | ≥ 80% | 3.13 | ≥ 80% | ≥ 80% | – | – | –

SMILES | chromatographic logP ([1]; log P) | pest or weed control at 100 g/ha ([2]; in Zea mays) | pest or weed control at 100 g/ha ([3]; in Brassica rapa) | pest or weed control at 100 g/ha [4] | chromatographic logP [1, 5] | pest or weed control at 100 g/ha [2, 6] | pest or weed control at 100 g/ha [3, 7] | chromatographic logP [1, 8] | pest or weed control at 20 g/ha ([3]; in Brassica rapa) | chromatographic logP ([1]; by HPLC according to EEC Directive 79/831 Annex V.A8, read-out: log P)
CNC(=O)c1cc(Cl)cc(C)c1NC(=O)c1cc(C(C)n2nnc(C(F)(F)F)n2)nn1-c1ncccc1Cl (stereo not shown) [Example 543] | 3.26 | ≥ 80% | ≥ 80% | ≥ 80% | – | – | – | – | – | –
CCNC(=O)c1cc(C#N)cc(C)c1NC(=O)c1cc(C(C)n2nnnc2C(F)(F)F)nn1-c1ncccc1Cl (stereo not shown) [Example 521] | 2.74 | ≥ 80% | ≥ 80% | ≥ 80% | – | – | – | – | – | –
CC(C)(C)NC(=O)c1cc(Cl)cc(Cl)c1NC(=O)c1cc(Cn2nnnc2C(F)(F)F)nn1-c1ncccc1Cl [Example 177] | 3.43 | ≥ 80% | ≥ 80% | ≥ 80% | – | – | – | – | – | –
CNC(=O)c1cc(I)cc(C)c1NC(=O)c1cc(Cn2nnc(C(F)(F)F)n2)nn1-c1ncccc1Br [Example 410] | – | – | – | ≥ 80% | 3.26 | ≥ 80% | ≥ 80% | – | – | –
Cc1cc(C#N)cc(C(=O)NC(C)C2CC2)c1NC(=O)c1cc(Cn2nnc(C(F)F)n2)nn1-c1ncccc1Cl (stereo not shown) [Example 263] | 2.86 | ≥ 80% | ≥ 80% | ≥ 80% | – | – | – | – | – | –
CSC[C@H](C)NC(=O)c1cc(C#N)cc(C)c1NC(=O)c1cc(Cn2nnc(C(F)(C(F)(F)F)C(F)(F)F)n2)nn1-c1ncccc1Cl [Example 376] | – | – | – | ≥ 80% | – | ≥ 80% | ≥ 80% | 3.96 | – | –
CNC(=O)c1cc(I)cc(C)c1NC(=O)c1cc(Cn2nnc(C(F)F)n2)nn1-c1ncccc1Cl [Example 273] | 2.73 | ≥ 80% | ≥ 80% | ≥ 80% | – | – | – | – | – | –
Cc1cc(F)cc(C(=O)NC2CC2)c1NC(=O)c1cc(Cn2nnc(C(F)(F)F)n2)nn1-c1ncccc1Cl [Example 27] | 2.87 | ≥ 80% | ≥ 80% | ≥ 80% | – | – | – | – | – | –
C=C(C)CNC(=O)c1cc(C#N)cc(C)c1NC(=O)c1cc(Cn2nnc(C(F)(F)F)n2)nn1-c1ncccc1Cl [Example 338] | 3.21 | ≥ 80% | ≥ 80% | ≥ 80% | – | – | – | – | – | –
Cc1cc(Cl)cc(C(=O)NC2CC2)c1NC(=O)c1cc(Cn2nnnc2C(F)(F)F)nn1-c1ncccc1Br [Example 487] | – | – | – | ≥ 80% | 2.9 | ≥ 80% | ≥ 80% | – | – | –
CNC(=O)c1cc(I)cc(C)c1NC(=O)c1cc(Cn2nnnc2C(F)(F)F)nn1-c1ncccc1Br [Example 506] | – | – | – | ≥ 80% | 2.91 | ≥ 80% | ≥ 80% | – | – | –
Cc1cc(C#N)cc(C(=O)NCC#N)c1NC(=O)c1cc(Cn2nnc(C(F)(F)F)n2)nn1-c1ccccc1Cl [Example 540] | – | – | – | ≥ 80% | 2.97 | ≥ 80% | ≥ 80% | – | – | –
Cc1cc(Cl)cc(C(=O)NC2CC2)c1NC(=O)c1cc(Cn2nnnc2C(F)F)nn1-c1ncccc1Cl [Example 461] | 2.5 | ≥ 80% | – | ≥ 80% | – | – | – | – | ≥ 80% | –
Cc1cc(Br)cc(C(=O)NC(C)C)c1NC(=O)c1cc(Cn2nnnc2C(F)(F)F)nn1-c1ncccc1Cl [Example 171] | 3.22 | ≥ 80% | ≥ 80% | ≥ 80% | – | – | – | – | – | –
Cc1cc(I)cc(C(=O)NCC#N)c1NC(=O)c1cc(Cn2nnc(C(F)(F)F)n2)nn1-c1ncccc1Br [Example 412] | – | – | – | ≥ 80% | 3.16 | ≥ 80% | ≥ 80% | – | – | –
Cc1cc(C#N)cc(C(=O)NC2CC2)c1NC(=O)c1cc(Cn2nnc(C(F)(F)C(F)(F)C(F)(F)F)n2)nn1-c1ncccc1Cl [Example 113] | – | ≥ 80% | ≥ 80% | ≥ 80% | – | – | – | – | – | 3.58
Cc1cc(C#N)cc(C(N)=O)c1NC(=O)c1cc(Cn2nnc(C(F)(F)F)n2)nn1-c1ncccc1C(F)(F)F [Example 236] | – | – | – | ≥ 80% | – | ≥ 80% | ≥ 80% | 2.67 | – | –
